# Data: US20130261108A1, “COMPOSITIONS AND METHODS FOR MODULATING FARNESOID X RECEPTORS” (IRM LLC, priority 2010, published 2013)
# Biological target: T1, human Farnesoid X Receptor (FXR) ligand binding domain (Homo sapiens, UniProt Q96RI1)
# T1 construct: purchased Invitrogen
# T1 sequence (Q96RI1 193-472 isoform Q96RI1-2): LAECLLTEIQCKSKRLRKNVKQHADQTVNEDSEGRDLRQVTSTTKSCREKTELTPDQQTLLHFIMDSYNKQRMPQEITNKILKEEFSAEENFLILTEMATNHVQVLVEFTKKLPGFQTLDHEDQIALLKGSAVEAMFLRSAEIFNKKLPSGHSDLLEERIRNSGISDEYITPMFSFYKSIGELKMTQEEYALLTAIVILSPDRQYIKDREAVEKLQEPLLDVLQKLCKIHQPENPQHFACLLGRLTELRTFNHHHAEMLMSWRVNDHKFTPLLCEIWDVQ
# Experiment: Human GST-FXR LBD co-activator interaction assay (FXR HTRF assay)
# Type: biochemical
# Conditions: GST-FXR LBD with biotin-labeled SRC-1 peptide, FRET/HTRF, 2.5 hours at room temperature; response relative to GW4064; read-out: FXR coactivator interaction assay (HTRF) (EC50)
# From the text: Human GST-FXR LBD Co-Activator Interaction Assay.
# The FXR HTRF assay is a biochemical assay measuring the interaction between FXR and a coactivator protein (SRC1). The ligand-induced interaction with a coactivator protein is a critical step in transcriptional activation by FXR. Thus, this is an assay designed to measure FXR agonist activity of compounds.
# The ligand-dependent interaction between GST-FXR LBD and a peptide derived from Steroid Receptor Coactivator-1 (SRC-1) was monitored by Fluorescence Resonance Energy Transfer (FRET). […] Test compounds (in DMSO solution) and detection reagents (anti-GST-Cryptate labeled antibody and Streptavidin-XL665 conjugate; CisBio) were added in assay buffer containing 50 mM KF. Plates are incubated at room temperature in the dark for 2.5 hours before reading on an Envision (PerkinElmer) at 665 nm and 590 nm.
# A negative control (without Streptavidin-XL665) was run with each assay and represented the background fluorescence. A reference FXR agonist, GW4064, was included in each experiment as positive control. The efficacy of each test compound was compared to that of GW4064. At each concentration, the relative activity of the test compound was expressed as Response %=(Rsample−RDMSO)/(Rpositive−RDMSO), where Rsample is the HTRF response (expressed in Delta F %) for the test compound, Rpositive is the maximal response for GW4064 at saturating concentrations, and RDMSO is the response for DMSO control. The EC50 values were calculated using GraphPad Prism (GraphPad Software) using non-linear regression curve fit (log(agonist) vs. response−variable slope (four parameters)).
row,SMILES,EC50
1,"O=C(O)c1ccc2nc(N3CCC(OCc4c(C5CCCCC5C(F)(F)F)noc4C4CC4)CC3)sc2c1 (single isomer, unassigned) [5 (Diastereomer A)]",245 nM
2,"O=C(O)c1ccc2nc(N3CCC(OCc4c(C5CCCCC5C(F)(F)F)noc4C4CC4)CC3)sc2c1 (single isomer, unassigned) [5 (Diastereomer B)]",64 nM
3,"CCOC(=O)c1ccc2nc(N3CCC(OCc4c(-c5ccccc5OC(F)(F)F)noc4C4CC4)CC3)sc2c1 [Example 1-1A, Ethyl 2-(4-((5-cyclopropyl-3-(2-(trifluoromethoxy)phenyl)isoxazol-4-yl)methoxy)piperidin-1-yl)benzo[d]thiazole-6-carboxylate]",929 nM
4,"COc1cc(C(=O)O)cc2sc(N3CCC(OCc4c(-c5ccccc5OC(F)(F)F)noc4C4CC4)CC3)nc12 [Example 1-2, 2-(4-((5-cyclopropyl-3-(2-(trifluoromethoxy)phenyl)isoxazol-4-yl)methoxy)piperidin-1-yl)-4-methoxybenzo[d]thiazole-6-carboxylic acid]",12 nM
5,"O=C(O)c1cc(F)c2nc(N3CCC(OCc4c(-c5ccccc5OC(F)(F)F)noc4C4CC4)CC3)sc2c1 [Example 1-3, 2-(4-((5-cyclopropyl-3-(2-(trifluoromethoxy)phenyl)isoxazol-4-yl)methoxy)piperidin-1-yl)-4-fluorobenzo[d]thiazole-6-carboxylic acid]",17 nM
6,"COc1cc(C(=O)O)cc2sc(N3CCC(OCc4c(-c5ccccc5C(F)(F)F)noc4C4CC4)CC3)nc12 [Example 1-4, 2-(4-((5-cyclopropyl-3-(2-(trifluoromethyl)phenyl)isoxazol-4-yl)methoxy)piperidin-1-yl)-4-methoxybenzo[d]thiazole-6-carboxylic acid]",4 nM
7,"O=C(O)c1ccc2sc(N3CCC(OCc4c(-c5ccccc5OC(F)(F)F)noc4C4CC4)CC3)nc2c1 [Example 2-1, 2-[4-({5-cyclopropyl-3-[2-(trifluoromethoxy)phenyl]-1,2-oxazol-4-yl}methoxy)piperidin-1-yl]1,3-benzothiazole-5-carboxylic acid]",62 nM
8,"CCOC(=O)c1ccc2nc(N3CCC(OCc4c(-c5ccccc5OC(F)(F)F)noc4C4(C)CC4)CC3)sc2c1 [Example 2-2A, ethyl 2-(4-{[5-(1-methylcyclopropyl)-3-[2-(trifluoromethoxy)phenyl]-1,2-oxazol-4-yl]methoxy}piperidin-1-yl)-1,3-benzothiazole-6-carboxylate]",1180 nM
9,"CC1(c2onc(-c3ccccc3OC(F)(F)F)c2COC2CCN(c3nc4ccc(C(=O)O)cc4s3)CC2)CC1 [Example 2-2B, 2-(4-{[5-(1-methylcyclopropyl)-3-[2-(trifluoromethoxy)phenyl]-1,2-oxazol-4-yl]methoxy}piperidin-1-yl)-1,3-benzothiazole-6-carboxylic acid]",98 nM
10,"Cc1cc(C(=O)O)cc2sc(N3CCC(OCc4c(-c5ccccc5OC(F)(F)F)noc4C4CC4)CC3)nc12 [Example 2-3, 2-[4-({5-cyclopropyl-3-[2-(trifluoromethoxy)phenyl]-1,2-oxazol-4-yl}methoxy)piperidin-1-yl]-4-methyl-1,3-benzothiazole-6-carboxylic acid]",24 nM
11,"O=C(O)c1cc(OC(F)(F)F)c2nc(N3CCC(OCc4c(-c5ccccc5OC(F)(F)F)noc4C4CC4)CC3)sc2c1 [Example 2-4, 2-[4-({5-cyclopropyl-3-[2-(trifluoromethoxy)phenyl]-1,2-oxazol-4-yl}methoxy)piperidin-1-yl]-4-(trifluoromethoxy)-1,3-benzothiazole-6-carboxylic acid]",5 nM

# Results, then the compound that gave them:
row,EC50,SMILES
1,761 nM,"CCOC(=O)c1ccc2nc(N3CCC(OCc4c(-c5ccccc5C(F)(F)F)noc4C4CC4)CC3)sc2c1 [Example 2-5A, ethyl 2-[4-({5-cyclopropyl-3-[2-(trifluoromethyl)phenyl]-1,2-oxazol-4-yl}methoxy)piperidin-1-yl]-1,3-benzothiazole-6-carboxylate]"
2,86 nM,"O=C(O)c1ccc2nc(N3CCC(OCc4c(-c5ccccc5C(F)(F)F)noc4C4CC4)CC3)sc2c1 [Example 2-5B, 2-[4-({5-cyclopropyl-3-[2-(trifluoromethyl)phenyl]-1,2-oxazol-4-yl}methoxy)piperidin-1-yl]-1,3-benzothiazole-6-carboxylic acid]"
3,396 nM,"CCOC(=O)c1ccc2nc(N3CCC(OCc4c(-c5c(Cl)cccc5C(F)(F)F)noc4C4CC4)CC3)sc2c1 [Example 2-6A, ethyl 2-[4-({3-[2-chloro-6-(trifluoromethyl)phenyl]-5-cyclopropyl-1,2-oxazol-4-yl}methoxy)piperidin-1-yl]-1,3-benzothiazole-6-carboxylate]"
4,198 nM,"O=C(O)c1ccc2nc(N3CCC(OCc4c(-c5c(Cl)cccc5C(F)(F)F)noc4C4CC4)CC3)sc2c1 [Example 2-6B, 2-[4-({3-[2-chloro-6-(trifluoromethyl)phenyl]-5-cyclopropyl-1,2-oxazol-4-yl}methoxy)piperidin-1-yl]-1,3-benzothiazole-6-carboxylic acid]"
5,736 nM,"CCOC(=O)c1ccc2nc(N3CCC(OCc4c(-c5c(OC)cccc5C(F)(F)F)noc4C4CC4)CC3)sc2c1 [Example 2-7A, ethyl 2-[4-({5-cyclopropyl-3-[2-methoxy-6-(trifluoromethyl)phenyl]-1,2-oxazol-4-yl}methoxy)piperidin-1-yl]-1,3-benzothiazole-6-carboxylate]"
6,75 nM,"COc1cccc(C(F)(F)F)c1-c1noc(C2CC2)c1COC1CCN(c2nc3ccc(C(=O)O)cc3s2)CC1 [Example 2-7B, 2-[4-({5-cyclopropyl-3-[2-methoxy-6-(trifluoromethyl)phenyl]-1,2-oxazol-4-yl}methoxy)piperidin-1-yl]-1,3-benzothiazole-6-carboxylic acid]"
7,2420 nM,"CCOC(=O)c1ccc2nc(N3CCC(OCc4c(-c5ccccc5OC(F)F)noc4C4CC4)CC3)sc2c1 [Example 2-8A, ethyl 2-[4-({5-cyclopropyl-3-[2-(difluoromethoxy)phenyl]-1,2-oxazol-4-yl}methoxy)piperidin-1-yl]-1,3-benzothiazole-6-carboxylate]"
8,45 nM,"O=C(O)c1ccc2nc(N3CCC(OCc4c(-c5ccccc5OC(F)F)noc4C4CC4)CC3)sc2c1 [Example 2-8B, 2-[4-({5-cyclopropyl-3-[2-(difluoromethoxy)phenyl]-1,2-oxazol-4-yl}methoxy)piperidin-1-yl]-1,3-benzothiazole-6-carboxylic acid]"
9,26 nM,"Cc1cc(C(=O)O)cc2sc(N3CCC(OCc4c(-c5ccccc5OC(F)F)noc4C4CC4)CC3)nc12 [Example 2-9, 2-[4-({5-cyclopropyl-3-[2-(difluoromethoxy)phenyl]-1,2-oxazol-4-yl}methoxy)piperidin-1-yl]-4-methyl-1,3-benzothiazole-6-carboxylic acid]"
10,21 nM,"O=C(O)c1cc(F)c2nc(N3CCC(OCc4c(-c5ccccc5OC(F)F)noc4C4CC4)CC3)sc2c1 [Example 2-10, 2-[4-({5-cyclopropyl-3-[2-(difluoromethoxy)phenyl]-1,2-oxazol-4-yl}methoxy)piperidin-1-yl]-4-fluoro-1,3-benzothiazole-6-carboxylic acid]"
11,557 nM,"CCOC(=O)c1ccc2nc(N3CCC(OCc4c(-c5c(F)cccc5Cl)noc4C4CC4)CC3)sc2c1 [Example 2-11A, ethyl 2-(4-{[3-(2-chloro-6-fluorophenyl)-5-cyclopropyl-1,2-oxazol-4-yl]methoxy}piperidin-1-yl)-1,3-benzothiazole-6-carboxylate]"
12,57 nM,"O=C(O)c1ccc2nc(N3CCC(OCc4c(-c5c(F)cccc5Cl)noc4C4CC4)CC3)sc2c1 [Example 2-12B, 2-(4-{[3-(2-chloro-6-fluorophenyl)-5-cyclopropyl-1,2-oxazol-4-yl]methoxy}piperidin-1-yl)-1,3-benzothiazole-6-carboxylic acid]"
13,10 nM,"O=C(O)c1ccc2nc(N3CCC(OCc4c(-c5c(Cl)cccc5Cl)noc4C4CC4)CC3)sc2c1 [Example 2-13, 2-(4-{[5-cyclopropyl-3-(2,6-dichlorophenyl)-1,2-oxazol-4-yl]methoxy}piperidin-1-yl)-1,3-benzothiazole-6-carboxylic acid]"
14,31 nM,"O=C(O)c1ccc2nc(N3CCC(OCc4c(-c5c(F)cccc5F)noc4C4CC4)CC3)sc2c1 [Example 2-14, 2-(4-{[5-cyclopropyl-3-(2,6-difluorophenyl)-1,2-oxazol-4-yl]methoxy}piperidin-1-yl)-1,3-benzothiazole-6-carboxylic acid]"
